Measurements reported in patent US4806532A, “Inhibition of epithelial phosphate transport” (Mayo Foundation for Medical Education and Research, priority 1985, dated 1989).
Entries after “also recorded” stand apart in the source; their conditions may differ.

Experiments:
[1] = target: T1, Na-Pi cotransporter (Rattus norvegicus, UniProt Q06496); assay: Na+-gradient-dependent 32Pi uptake by renal cortical BBMV (rapid filtration); assay type: biochemical
T1 construct: from tissue; host or cells: rat renal cortex, brush border membrane vesicles
T1 sequence (Q06496 1-637): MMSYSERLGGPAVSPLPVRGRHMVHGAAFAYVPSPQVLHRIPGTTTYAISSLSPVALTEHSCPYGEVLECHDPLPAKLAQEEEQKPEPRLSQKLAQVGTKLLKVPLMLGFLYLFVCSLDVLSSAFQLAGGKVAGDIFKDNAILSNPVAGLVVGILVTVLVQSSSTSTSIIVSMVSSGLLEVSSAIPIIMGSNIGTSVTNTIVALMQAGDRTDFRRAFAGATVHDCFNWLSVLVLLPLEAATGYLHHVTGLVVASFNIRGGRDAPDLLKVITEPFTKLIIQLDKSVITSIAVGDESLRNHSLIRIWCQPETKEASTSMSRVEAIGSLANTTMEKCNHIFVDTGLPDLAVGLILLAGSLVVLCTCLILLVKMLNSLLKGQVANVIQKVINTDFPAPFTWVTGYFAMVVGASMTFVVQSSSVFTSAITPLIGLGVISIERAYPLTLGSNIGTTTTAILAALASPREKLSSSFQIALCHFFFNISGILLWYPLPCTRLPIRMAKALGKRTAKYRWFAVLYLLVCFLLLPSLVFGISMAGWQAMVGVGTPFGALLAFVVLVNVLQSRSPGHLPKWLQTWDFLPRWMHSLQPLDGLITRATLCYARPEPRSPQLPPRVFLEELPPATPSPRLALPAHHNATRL
Procedure: (§1) The brush border membrane vesicles (BBMV) were prepared from renal cortical tissue of adult male Sprague-Dawley rats of an average body weight of about 220 grams. Rats were fed ad libitum standard rat chow containing 0.7% Pi and had free access to distilled water. Rats were sacrificed under anesthesia and dissected renal cortical tissue was used for preparation of BBMV fraction by the divalent cation-precipitation procedure, employed and described in detail in J. Clin. Invest., 67, 1347 (1981) and J. Biol. Chem., 258, 5695 (1983), with the following modifications: (a) MgCl2 instead of CaCl2 was added to crude homogenate (final concentration 10 mM MgCl2) to precipitate membranes other than BBMV; (b) in the final step, BBMV were washed and equilibrated in a medium of pH=7.5, instead of pH=8.5. The enrichment and specific activities of typical BBM enzymes alkaline phosphatase (APases), γ-glutyamyl transferase (γ-GTT), leucineaminopeptidase (LAP) and maltase with use of these modifications were similar as in BBMV fractions prepared in our previous studies. As a final step in the preparative procedure, the BBMV fraction was washed and resuspended in a medium containing 300 mM mannitol and 5 mM Tris-HEPES adjusted to pH=t.5, referred to as "MTH-medium," unless specified otherwise. The analogous BBMV fractions, using the same procedure, were prepared from renal cortices of mongrel dogs, albino mice and New Zealand albino rabbits.
The BBMV uptake of ^32 Pi, D-[^3 H]-glucose, L-[^3 H]-proline and ^22 Na^+ was measured by means of a rapid filtration technique, as described in J. Clin. Invest., 67, 1347 (1981) and Am. J. Physiol., 246, F133-F139 (1984). Also, unless specified otherwise, the medium for the solute uptake assay consisted of following compounds (in final concentrations): 100 mM mannitol, 100 mM NaCl (or 100 mM KC1) and 5 mM Tris-HEPES (pH=7.5) and eitehr 0.1 mM K2 H^32 PO4, or 0.05 mM D-[^3 H]-glucose, or 0.025 mM L-[^3 H]-proline. IN the ^22 Na^+ uptake studies, the assay medium contained 100 mM ^22 NaCl (^22 NaCl about […] per tube), 100 mM mannitol and 5 mM Tris-HEPES (pH 7.5).
In most experiments, the Na^+ -gradient-dependent ^32 Pi uptake in the concentrative "uphill" phase was measured at 20 seconds period. Since Na^+ -independent Pi uptake in this time period was quantitatively minor component (<5%) of the Na^+ -gradient-dependent Pi uptake, it was not routinely subtracted.

[2] = Hydrolysis of phosphono-compounds (release of Pi) in the BBMV assay; details: 1 mM; hydrolysis to release more than 5% Pi
Description: Compounds studied in the present experiments which inhibited BBM transport of Pi without hydrolysis to release more than 5% Pi are listed in Table 1.

[3] = system: L-[^3 H]-proline uptake by BBMV; assay: Na+-gradient-dependent uptake of L-[3H]-proline by renal BBMV; assay type: biochemical, rat; details: initial uptake 15 sec, FIG. 2
Procedure: as §1, with “As a final step in the preparative procedure, the BBMV fraction was washed and resuspended in a medium containing 300 mM mannitol and 5 mM Tris-HEPES adjusted to pH=t.5, referred to as "MTH-medium," unless specified otherwise. The analogous BBMV fractions, using the same procedure, were prepared from renal cortices of mongrel dogs, albino mice and New Zealand albino rabbits.” left out
(§2) The BBMV uptake of ^32 Pi, D-[^3 H]-glucose, L-[^3 H]-proline and ^22 Na^+ was measured by means of a rapid filtration technique, as described in J. Clin. Invest., 67, 1347 (1981) and Am. […]

[4] = system: D-[^3 H]-glucose uptake by BBMV; assay: Na+-gradient-dependent uptake of D-[3H]-glucose by renal BBMV; assay type: biochemical, rat; details: initial uptake 15 sec, FIG. 2
Procedure: as §1, with “As a final step in the preparative procedure, the BBMV fraction was washed and resuspended in a medium containing 300 mM mannitol and 5 mM Tris-HEPES adjusted to pH=t.5, referred to as "MTH-medium," unless specified otherwise. The analogous BBMV fractions, using the same procedure, were prepared from renal cortices of mongrel dogs, albino mice and New Zealand albino rabbits.” left out
as §2

[5] = system: diffusional uptake of ^22 Na^+ by BBMV; assay: Diffusional uptake of 22Na+ by renal BBMV; assay type: biochemical, rat; details: 1 mM
Procedure: as §1, with “As a final step in the preparative procedure, the BBMV fraction was washed and resuspended in a medium containing 300 mM mannitol and 5 mM Tris-HEPES adjusted to pH=t.5, referred to as "MTH-medium," unless specified otherwise. The analogous BBMV fractions, using the same procedure, were prepared from renal cortices of mongrel dogs, albino mice and New Zealand albino rabbits.” left out
as §2

NCCP(=O)(O)O [2-aminoethylphosphonic acid, reference compound]
effect on Na+-gradient uptake of Pi by renal BBMV (in words) [1]: lacked the inhibitory effect

CC(O)(P(=O)(O)O)P(=O)(O)O [EHDP, disodium ethane-1-hydroxy-1,1-diphosphonate, reference compound]
inhibition at 1000 µM ([1]; 1 mM, initial uptake at 20 sec, rat kidney cortex BBMV, read-out: Δ% (inhibition as percent decrease from control) of Na+-gradient-dependent 32Pi uptake): -27% | Note: hydrolysis [2]: no

O=P(O)(O)CP(=O)(O)O [MDP, Methylenediphosphonic acid, reference compound]
inhibition at 5000 µM ([1]; 5 mM, initial uptake at 20 sec, rat kidney cortex BBMV, read-out: Δ% (inhibition as percent decrease from control) of Na+-gradient-dependent 32Pi uptake): -21%

O=C(O)P(=O)(O)O [PFA, phosphonoformic acid]
effect on Na+-gradient-dependent uptake of L-[3H]-proline [3]: no inhibitory effect | effect on Na+-gradient-dependent uptake of D-[3H]-glucose [4]: no inhibitory effect | 22Na+ uptake 120 min ([5]; equilibrium, control 166 ± 25): 192 ± 30 nmoles/mg protein | 22Na+ uptake 20 sec ([5]; mean ± SEM of 3 experiments, control 42 ± 4): 45 ± 3 nmoles/mg protein

O=C(O)CCP(=O)(O)O [PPA, phosphonopropionic acid, reference compound]
effect on Na+-gradient uptake of Pi by renal BBMV (in words) [1]: inactive

O=P(O)(O)CO [hydroxymethylphosphonic acid, reference compound]
effect on Na+-gradient uptake of Pi by renal BBMV (in words) [1]: without effect; also recorded: lacked the inhibitory effect

O=P(O)(O)c1ccccc1 [phenylphosphonic acid, reference compound]
effect on Na+-gradient uptake of Pi by renal BBMV (in words) [1]: without effect; also recorded: lacked the inhibitory effect

COC(=O)CP(=O)(OC)OC [trimethylester of PAA, reference compound]
effect on Na+-gradient uptake of Pi by renal BBMV (in words) [1]: without inhibitory effort

COC(=O)P(=O)(OC)OC [trimethylester of TPFA, reference compound]
effect on Na+-gradient uptake of Pi by renal BBMV (in words) [1]: without inhibitory effort
